# Test results reported in PMC10667816, “A Cell‐Penetrant Peptide Disrupting the Transcription Factor CP2c Complexes Induces Cancer‐Specific Synthetic Lethality” (Advanced Science, 2023).
# *1 amine or outer side, *2 acyl side, *3 side chain or, on linkers, in order; H or OH if unused. Where a SMILES comes first, the peptide text is derived from it. Side-chain parts run from the residue outwards. The star is where a group is joined. γGlu = O=C(O)[C@H](CCC(=O)[*:2])N[*:1]; Palmitoyl = CCCCCCCCCCCCCCCC(=O)*
# How the values were obtained:
# Solubility of peptides = format: physicochemical
# Description: The peptides listed in Table S3 (Supporting Information) were synthesized by either ANYGEN (Kwangju, Korea) or PepMic (Suzhou, China) and achieved purity of over 95%. These peptides were synthesized using the Solid‐phase method based on the Fmoc strategy, using an Applied Biosystems 431A peptide synthesizer on a 0.25‐mmol scale. To enhance the stability of ACP52C, saturated C16 palmitic acid, DHA, and E‐pal were utilized. These fatty acids were linked to the lysine (K) residue at the N‐terminal of ACP52C or within the ACP52 and iRGD region through a covalent bond formed between the εK NH3+ and αE or γE COO‐ groups. After synthesis, the final product was prepared through lyophilization and appeared as a white amorphous powder for both ACP52C and its derivatives. To confirm their quality, the purity and molecular weight of the final product were evaluated using amino acid analysis, analytical RP‐HPLC, and MALDI‐MS. […] FQI1, Sorafenib, and cisplatin were purchased from Sigma–Aldrich (SML0413, SML2653) or Selleckchem (S1166), respectively.
# Figure S21. […]
# A) A schematic representation depicting the structural diagrams, molecular weights, and minimum solubilities (in water or saline) of ACP52C and its derivatives. […] Tumor weight in the sacrificed mice after completion of drug administration schedule was expressed as means ± SE. […]
# [1] = tested on: normal male and female mice; test: In vivo toxicity test of ACP52C; parameters: species or system mouse; conditions: ICR mice, 100 or 1000 mg kg^−1 intravenously, once or twice with four‐day interval; H&E of major organs
# Method: To assess the toxicity of ACP52C, twelve 6‐weeks‐old ICR mice (six males and six females) were divided into three groups, each containing two mice: one group received a saline, another received 100 mg kg^−1 of ACP52C, and the third received 1000 mg kg^−1 of ACP52C. For each group, one mouse was intravenously injected once, and the other one was intravenously injected twice with a four‐day interval between injections. At the time of sacrifice, major organs were analyzed by H&E staining. To assess the repeated toxicity of ACP52CGK, twenty‐four 6‐weeks‐old ICR mice (twelve males and twelve females) were used, dividing them into two groups of six mice each: one group received saline, and the other received 100 mg kg^−1 of ACP52CGK. […] Body weight, water and feed consumption were measured every 3 days after injection. […] Major organs were weighed and analyzed by H&E staining. H&E‐stained tissue sections were analyzed and photographed, and the representative histological images were recorded. […]
# A-C) Anticancer effects of ACP52C in xenograft model mice. […] Data are expressed as means ± SD, and the number […]
# effective tumor targeting. […] The estimated residual levels of Cy5-ACP52C in the body over time were determined by quantifying the fluorescence intensity of images (right). RL50 represents the required time for a 50% retention of fluorescence level. (F) Bright field and fluorescence images of the […]
# [2] = tested on: lung cancer cells and some blood cancer cells; test: MTT growth inhibition in ACP52C‐resistant cells; format: cell-based, human; conditions: concentrations up to 1 mM
# Method: Various cell lines were treated with peptides, either alone or in combination with the CASP2 inhibitor (Ac‐VDVAD‐CHO; Enzo ALX‐260‐058‐M001) at various concentrations for 4 days. Cell viability was assessed on day 2 or day 4 using MTT (3‐(4,5‐dimethylthiazol‐2‐yl)‐2,5‐diphenyltetrazolium bromide; Sigma–Aldrich, M2128) assay. In brief, fresh cells were seeded in flat‐bottomed 96‐well tissue culture plates at appropriate concentrations for each cell line per well using complete culture medium. The cells were incubated in 100 µL of culture medium containing various concentration of chemicals or peptides at 37 °C for 0 to 96 h. A solution of MTT (5 mg mL^−1) was added to the culture medium, and the cells were further incubated at 37 °C for an additional 3 h. The MTT medium was then removed, and the formazan crystals were dissolved in DMSO (100 µL per well). The formazan concentration was measured spectrophotometrically at 490 nm using a Varioskan Flash Spectral Scanning Multimode Reader (Thermo Scientific Korea). Nonlinear regression curves for growth inhibition and GI50 values for each cell line were estimated from independent replicates using the Prism (version 6) software (GraphPad Software Inc.)
# CP2c complexes = CP2c complexes (Homo sapiens, UniProt Q12800); test: In vitro IP and pulldown assays of CP2c complexes; format: biochemical; conditions: regardless of the presence of probe DNA
# Method: Cells were lysed with lysis buffer (50 mM Tris‐HCl, pH 7.4, 150 mM NaCl, 1 mM EDTA, 0.1% triton X‐100, and 1 mM PMSF) with freshly added 1 mM DTT and a protease inhibitor cocktail. Input samples (10% of whole lysate) were saved from each lysate for WB analysis. For immunoprecipitation, precleared extracts were incubated overnight at 4 °C with 10 µL Protein A/G agarose beads, pre‐incubated with 2 µg of the primary antibodies (Table S4, Supporting Information). The immune complexes were washed 3 times with lysis buffer, and bound proteins were eluted with 2X bed volume of 0.2 M glycine buffer, followed by neutralization with an equal volume of 1 M Tris‐HCl, pH 8.0. For Flag tag immunoprecipitation, precleared extracts were incubated with 2 µL of Flag‐M2 beads (Sigma–Aldrich, A2220) by rotating overnight at 4 °C. The immune complexes were washed 3 times with lysis buffer, bound proteins were eluted with 100 µg mL^−1 Flag peptide (Sigma–Aldrich, F4799). Precipitated proteins were analyzed using western blot.
# Biotinylated‐DNA fragments or ‐peptides and GST‐fused CP2c, whole‐ or nuclear‐ extracts of MDA‐MB‐231 cells were used for the analyze the interaction of peptide or DNA with CP2c. Nuclear extracts were extracted by the method described elsewhere.^[ [14] ^] […] The radioactivity of the eluted probe was measured by scintillation counting. […]
# Chain of CP2c complexes (Q12800 whole entry, one chain of several): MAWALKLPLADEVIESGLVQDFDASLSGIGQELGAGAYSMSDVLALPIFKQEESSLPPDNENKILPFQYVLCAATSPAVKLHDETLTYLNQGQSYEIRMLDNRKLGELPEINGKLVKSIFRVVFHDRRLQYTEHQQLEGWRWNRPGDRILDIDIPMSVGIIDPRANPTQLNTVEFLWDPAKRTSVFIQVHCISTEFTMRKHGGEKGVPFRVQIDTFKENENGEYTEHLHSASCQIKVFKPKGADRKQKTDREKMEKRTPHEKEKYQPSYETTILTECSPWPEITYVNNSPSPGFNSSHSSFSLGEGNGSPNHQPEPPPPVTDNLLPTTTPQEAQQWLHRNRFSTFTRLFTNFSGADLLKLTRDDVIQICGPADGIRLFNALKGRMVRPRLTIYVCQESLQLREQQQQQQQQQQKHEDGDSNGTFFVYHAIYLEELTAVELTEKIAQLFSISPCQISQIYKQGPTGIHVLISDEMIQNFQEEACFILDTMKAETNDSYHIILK
compound,measurement,setting,value
CCCCCCCCCCCCCCCC(=O)N[C@@H](CCC(=O)NCCCC[C@H](NC(=O)CNC(=O)CNC(=O)[C@@H]1CCCN1C(=O)[C@H](CCCNC(=N)N)NC(=O)[C@H](CCC(N)=O)NC(=O)[C@@H]1CCCN1C(=O)[C@H](Cc1ccc(O)cc1)NC(=O)[C@H](CC(N)=O)NC(C)=O)C(=O)NCC(=O)NCC(=O)N[C@@H](CS)C(=O)N[C@@H](CCCNC(=N)N)C(=O)NCC(=O)N[C@@H](CC(=O)O)C(=O)N[C@@H](CCCCN)C(=O)NCC(=O)N1CCC[C@H]1C(=O)N[C@@H](CC(=O)O)C(=O)N[C@@H](CS)C(N)=O)C(=O)O [ACP52CGK] (Ac-NYPQRPGGK([γGlu-Palmitoyl])GGCRGDKGPDC-NH2),concentration at which completely dissolved,Solubility of peptides,≥ 100000 µg/mL
CC(=O)N[C@@H](CC(N)=O)C(=O)N[C@@H](Cc1ccc(O)cc1)C(=O)N1CCC[C@H]1C(=O)N[C@@H](CCC(N)=O)C(=O)N[C@@H](CCCNC(=N)N)C(=O)N1CCC[C@H]1C(=O)N[C@@H](CS)C(=O)N[C@@H](CCCNC(=N)N)C(=O)NCC(=O)N[C@@H](CC(=O)O)C(=O)N[C@@H](CCCCN)C(=O)NCC(=O)N1CCC[C@H]1C(=O)N[C@@H](CC(=O)O)C(=O)N[C@@H](CS)C(N)=O [ACP52C] (Ac-NYPQRPCRGDKGPDC-NH2),adverse side effects,[1],did not exhibit any adverse side effects
same,growth inhibition,[2],resistance
"CCOc1ccccc1C1CC(=O)Nc2cc3c(cc21)OCO3 (stereo not shown) [FQI1, Factor Quinolinone Inhibitor 1, reference compound]",dissociation of CP2c complexes,CP2c complexes,only slight perturbation of CP2c complexes
